SMILES strings stand for the structures. Bounds are passed on as bounds.

Holding throughout (type): binding
The target in one test is T1, SnRK2.2 (Arabidopsis thaliana, UniProt Q39192).
T1 construct: gene SRK2D
T1 sequence (Q39192 1-362): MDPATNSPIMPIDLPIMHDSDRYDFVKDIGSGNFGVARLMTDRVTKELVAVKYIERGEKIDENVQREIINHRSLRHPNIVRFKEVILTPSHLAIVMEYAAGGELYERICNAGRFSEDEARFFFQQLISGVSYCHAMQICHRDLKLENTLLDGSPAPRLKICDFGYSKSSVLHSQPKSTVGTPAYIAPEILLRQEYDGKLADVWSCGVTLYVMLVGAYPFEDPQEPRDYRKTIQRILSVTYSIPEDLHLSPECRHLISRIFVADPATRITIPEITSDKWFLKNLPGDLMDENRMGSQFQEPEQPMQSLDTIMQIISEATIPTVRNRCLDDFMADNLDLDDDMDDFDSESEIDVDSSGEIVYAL
Nature of the test: thermal shift (SYPRO Orange). The settings on record: 50 µM compound.

The target of a further test is T2, SnRK2.3 (Arabidopsis thaliana, UniProt Q39193).
T2 construct: gene SRK2I; full length, recombinant from E. coli; untagged and as N-terminal MBP fusion (NAAAEF linker)
T2 sequence (Q39193 1-361): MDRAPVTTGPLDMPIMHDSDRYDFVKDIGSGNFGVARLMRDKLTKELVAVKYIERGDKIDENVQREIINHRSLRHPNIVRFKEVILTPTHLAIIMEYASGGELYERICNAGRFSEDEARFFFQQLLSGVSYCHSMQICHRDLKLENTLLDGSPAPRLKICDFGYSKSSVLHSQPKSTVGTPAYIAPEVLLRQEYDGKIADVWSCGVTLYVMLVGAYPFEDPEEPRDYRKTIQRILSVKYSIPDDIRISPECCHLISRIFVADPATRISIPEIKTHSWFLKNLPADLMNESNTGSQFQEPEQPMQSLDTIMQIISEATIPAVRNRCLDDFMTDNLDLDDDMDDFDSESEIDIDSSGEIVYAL
As to the kind of experiment: thermal shift (SYPRO Orange). The settings on record: 50 µM compound, 5 µM kinase.

For the next test, the target named is T3, SnRK2.6 (Arabidopsis thaliana, UniProt Q940H6).
T3 construct: gene SRK2E; full length, recombinant from E. coli; untagged in TSA, H6GST fusion in kinase assay
T3 sequence (Q940H6 1-362): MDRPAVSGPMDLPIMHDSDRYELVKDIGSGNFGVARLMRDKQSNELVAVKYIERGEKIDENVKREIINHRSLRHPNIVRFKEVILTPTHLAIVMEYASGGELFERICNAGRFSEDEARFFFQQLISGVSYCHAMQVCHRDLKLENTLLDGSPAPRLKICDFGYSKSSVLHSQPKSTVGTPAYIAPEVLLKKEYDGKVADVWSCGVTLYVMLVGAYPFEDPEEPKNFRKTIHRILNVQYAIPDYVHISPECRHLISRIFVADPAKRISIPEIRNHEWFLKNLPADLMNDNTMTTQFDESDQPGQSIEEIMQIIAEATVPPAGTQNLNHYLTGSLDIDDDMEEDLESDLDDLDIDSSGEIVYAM
As to the kind of experiment: thermal shift (SYPRO Orange). The settings on record: 50 µM compound, 5 µM kinase.

A further test has as its target T4, PYL2 (Arabidopsis thaliana, UniProt O80992).
T4 construct: residues 14-188, recombinant from E. coli, receptor alone without PP2C; dimeric
T4 sequence (O80992 14-188): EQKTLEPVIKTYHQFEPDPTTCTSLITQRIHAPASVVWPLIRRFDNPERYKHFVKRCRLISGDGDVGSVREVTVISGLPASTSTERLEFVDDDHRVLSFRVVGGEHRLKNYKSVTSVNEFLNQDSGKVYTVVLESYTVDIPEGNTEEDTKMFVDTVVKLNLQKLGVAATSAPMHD
Nature of the test: thermal shift (SYPRO Orange). To be noted: 500 µM pyrabactin, no PP2C; apo Tm not derivable.

For test [1], the target named is T5, PYL1/HAB1 coreceptor complex (Arabidopsis thaliana, UniProt Q8VZS8).
T5 construct: H6GST-PYL1 on SPA beads plus HAB1 (172-511), both from E. coli; 1:1 complex; with Protein phosphatase 2C 16
T5 sequence (Q8VZS8 36-211): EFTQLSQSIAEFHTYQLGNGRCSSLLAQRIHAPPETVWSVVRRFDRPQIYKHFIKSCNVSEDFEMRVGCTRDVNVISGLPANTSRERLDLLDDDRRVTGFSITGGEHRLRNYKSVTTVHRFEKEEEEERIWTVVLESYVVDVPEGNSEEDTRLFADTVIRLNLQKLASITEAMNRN
T5 sequence (Q9CAJ0 172-511 partner): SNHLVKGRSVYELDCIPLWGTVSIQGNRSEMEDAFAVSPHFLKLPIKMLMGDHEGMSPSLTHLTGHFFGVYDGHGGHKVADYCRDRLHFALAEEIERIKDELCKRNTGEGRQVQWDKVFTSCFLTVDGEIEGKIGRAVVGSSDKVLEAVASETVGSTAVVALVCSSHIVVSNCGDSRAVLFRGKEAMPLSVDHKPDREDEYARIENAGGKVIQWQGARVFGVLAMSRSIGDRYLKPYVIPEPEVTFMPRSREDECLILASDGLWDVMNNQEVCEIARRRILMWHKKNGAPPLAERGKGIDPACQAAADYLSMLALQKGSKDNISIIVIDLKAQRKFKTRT
Nature of the test: radioligand competition (SPA, 3H-ABA). To be noted: 450 nM 3H-ABA, 10 µM HAB1, MOPS pH 7.4, room temperature; curve only in figure. On the technique in general: In a radioligand displacement assay an active substance lowers the binding of a labelled ligand.

Regarding `O=C1NC(=O)c2c1c(-c1ccccc1Cl)cc1[nH]c3ccc(O)cc3c21` [Wee1 inhibitor], the dTm at SnRK2.2, on SnRK2.3 and at SnRK2.6 was over 3 °C throughout.
Turning to `O=S(=O)(NCc1ccccn1)c1ccc(Br)c2ccccc12` [pyrabactin], the “thermal shift (SYPRO Orange)” value at PYL2 is reported as “suggesting that pyrabactin directly binds PYL2, but with an affinity that is lower”. In addition, in test [1], the “radioligand competition (SPA, 3H-ABA)” value is “Competition of the interactions between ^3H-ABA and the PYL1/HAB1 (A)”.

The values above are taken from article PMC3480437, “Abscisic Acid Signaling: Thermal Stability Shift Assays as Tool to Analyze Hormone Perception and Signal Transduction” (PLoS ONE, 2012).
